pIC50: −log10 of the molar value.
Target: Synaptic vesicular amine transporter (Homo sapiens) (UniProt Q05940)
Experiment: SLC18A2 vesicular uptake inhibitors, dose response (AID 1794817)
Settings: HEK-293 SLC18A2 OE, FFN206 uptake fluorescence

Chain of Synaptic vesicular amine transporter (Homo sapiens) (Q05940 whole entry, looked up): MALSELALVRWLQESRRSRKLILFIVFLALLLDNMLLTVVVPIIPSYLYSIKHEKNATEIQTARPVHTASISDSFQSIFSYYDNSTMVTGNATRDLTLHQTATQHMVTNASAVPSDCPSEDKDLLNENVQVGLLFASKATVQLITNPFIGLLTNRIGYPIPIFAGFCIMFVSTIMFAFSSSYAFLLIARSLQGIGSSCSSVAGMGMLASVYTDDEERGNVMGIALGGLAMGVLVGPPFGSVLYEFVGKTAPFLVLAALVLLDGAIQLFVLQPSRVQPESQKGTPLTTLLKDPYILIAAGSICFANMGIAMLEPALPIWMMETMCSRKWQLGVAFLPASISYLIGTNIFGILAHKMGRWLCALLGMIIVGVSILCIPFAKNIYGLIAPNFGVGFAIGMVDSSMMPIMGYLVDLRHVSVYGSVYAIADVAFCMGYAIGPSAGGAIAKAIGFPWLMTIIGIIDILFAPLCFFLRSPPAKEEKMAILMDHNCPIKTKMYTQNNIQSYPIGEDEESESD

COc1cc2c(cc1OC)C1CC(=O)C(CC(C)C)CN1CC2 (configuration not stated)
pIC50: 7.70

CNc1ccc2c(CCN)cc(=O)oc2c1
pIC50: 5.45

— PubChem BioAssay AID1794817
